Experimental data taken from patent US6887897B2, “Calcium glutarate supplement and phosphorus binder” (Mission Pharmacal Company, priority 2001, dated 2005).

Experiments:
[1] = aqueous solubility of calcium salts; type: physicochemical
Description: (§1) The following in-vitro tests were conducted to test the solubility and ability of calcium glutarate to bind with phosphates. The tests included analysis for monobasic, Ca(Na2PO4)2, dibasic, CaNaPO4, and tribasic, Ca(PO4)2 binding. The three examples are as follows.

[2] = in-vitro test of ability of calcium glutarate to bind with phosphates (free calcium in filtrate by atomic absorption spectrometry); settings: filtered through 0.45-μm nylon filter
Description: as §1
(§2) An aqueous solution of calcium glutarate was mixed with a twice over molar solution of sodium phosphate. A suspension formed which was filtered by a vacuum through a 0.45-μm nylon filter. The resulting filtrate was assayed for free calcium by atomic absorption spectrometry. The percent of calcium recovered in solution was 0.1%.
as §2, with “mixed with an equi-molar solution of” for “mixed with a twice over molar solution of”, “filtered by vacuum through” for “filtered by a vacuum through”
An aqueous solution of calcium glutarate was mixed with a two-thirds molar solution of sodium phosphate. A suspension formed which was filtered by vacuum through a 0.45-μm nylon filter. The resulting filtrate was assayed for free calcium by atomic absorption spectrometry. The percent of calcium, recovered in solution was 4.5%.

Question: What does the source list for `O=C([O-])CCCC(=O)[O-].[Ca+2]` [calcium glutarate]?
Answer: solubility [1]: about 5.2 gm per 100 cc; percent of calcium recovered in solution ([2]; mixed with a twice over molar solution of sodium phosphate): 0.1%; percent of calcium recovered in solution ([2]; mixed with a two-thirds molar solution of sodium phosphate): 4.5%; percent of calcium recovered in solution ([2]; mixed with an equi-molar solution of sodium phosphate): 0.1%
